Test results taken from the supplement of paper PMC10307832.

Columns and labels:
Test in all cases: relative viability (nuclei count vs DMSO), 5 days (fraction); higher = more cells survive
IDH-C35 = compound: Cc1ccccc1C(C(=O)NC1CCCCC1)N(C(=O)Cn1ccnc1C)c1cccc(F)c1 [IDH-C35]
Procedure, shortened: (§1)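 Vehicle-anchored 1536-well plates of lung cancer cell lines, held overnight at 37 °C, were pinned with five library-drug doses (not always all listed) spaced by √10. No medium change followed over the next 5 days, after which the cells were fixed, permeabilised and Hoechst-stained together and imaged at 4×. Nuclei were counted with MetaXpress, and viability is treated-well nuclei over vehicle-well nuclei, taken as a median across plates. Plates passed with control CV below 25% and at least one doubling.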

[1] = compound: CC1=C(C(=NN1)C)CC2=C(C3=C(S2)N(C(=O)N(C3=O)C)CC(C)C)C(=O)N4C[C@@H](CO4)O
Procedure, shortened: as §1

[2] = compound: CC1=C(C(=NN1)C)CC2=C(C3=C(S2)N(C(=O)N(C3=O)C)CC(C)C)C(=O)N4C[C@@H](CO4)O + O=C(CCCCCCC(=O)Nc1ccccc1)NO [Vorinostat] (partner 1 µM)
Procedure, shortened: (§2)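 Cells from lung cancer lines were seeded into 1536-well plates and, one day later, dosed by pin tool. Treatments were either a single drug or a fixed dose of an anchor drug with five library-drug doses (not always all listed) in √10 steps. After 5 days, nuclei were stained in a one-step fixation (final 0.05% Triton X-100, 1% formaldehyde, 1 ug/ml Hoechst) and counted on 4× images, and relative viability is the treated-to-vehicle nuclei ratio, as the median of duplicate plates.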

[3] = compound: CC1=C(C(=NN1)C)CC2=C(C3=C(S2)N(C(=O)N(C3=O)C)CC(C)C)C(=O)N4C[C@@H](CO4)O + Nc1ncn([C@H]2C[C@H](O)[C@@H](CO)O2)c(=O)n1 [Decitabine] (partner 2 µM)
Procedure, shortened: as §2

For UMC-11, the relative viability (IDH-C35; 0.08 µM) was 1.03, the relative viability (IDH-C35; 0.253 µM) was 0.975 and the relative viability (IDH-C35; 0.8 µM) was 0.986. For the same cell line, the relative viability (IDH-C35; 2.53 µM) was 0.951, the relative viability (IDH-C35; 8 µM) was 1.02 and the relative viability ([1]; 0.0025 µM) was 1.08. The relative viability ([1]; 0.007906 µM) was 1.04, the relative viability ([1]; 0.025 µM) was 0.974 and the relative viability ([1]; 0.07906 µM) was 0.993. It also gave a relative viability ([1]; 0.25 µM) of 1.18, a relative viability ([2]; first compound 0.0025 µM) of 0.41 and a relative viability ([2]; first compound 0.007906 µM) of 0.429. For the same cell line, the relative viability ([2]; first compound 0.025 µM) was 0.396, the relative viability ([2]; first compound 0.07906 µM) was 0.464 and the relative viability ([2]; first compound 0.25 µM) was 0.424. The relative viability ([3]; first compound 0.0025 µM) was 0.54, the relative viability ([3]; first compound 0.007906 µM) was 0.506 and the relative viability ([3]; first compound 0.025 µM) was 0.38. The relative viability ([3]; first compound 0.07906 µM) was 0.483 and the relative viability ([3]; first compound 0.25 µM) was 0.491.
